Read-outs that look alike come from different tables or passages of the source.

Assay [1] concerns the target GDP-bound NRAS wild-type protein (Homo sapiens, UniProt P01111). Kind of assay: Binding to NRAS by surface plasmon resonance (SPR), KD and KD ratio to KRAS. The method, boiled down:
(§1)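 SPR, 30°C: Avi-biotin RAS·GDP captured via Biotin CAPture (~100–300 RU); running buffer HBS pH 7.4, 1 mM DTT, 10 mM MgCl2, 0.01% Tween 20, 10 µM GDP, 4% DMSO. Single-cycle kinetics, 100 µL/min, 75 s injections; 1:1 model → KD.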
In general terms: SPR reads the build-up and loss of mass on a sensor chip optically.

The target in assay [2] is GDP-bound KRAS wild-type protein (Homo sapiens, UniProt P01116). Kind of assay: Binding to KRAS by surface plasmon resonance (SPR), dissociation constant KD. The method, boiled down:
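Biotinylated GDP-bound RAS was captured at about 100–300 RU. Running buffer: HBS pH 7.4, 10 mM MgCl2, 10 µM GDP, 1 mM DTT, 0.01% Tween 20, 4% DMSO.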

Another assay has as its target HRAS wild-type protein (Homo sapiens, UniProt P01112). Kind of assay: Binding to HRAS by surface plasmon resonance (SPR), KD and KD ratio to KRAS. The method, boiled down: as §1
In assay [3] the test system is human lung cancer strain NCI-H441. Kind of assay: NCI-H441 cell proliferation inhibitory activity (CellTiter-Glo, 4 days). In kind it is cell-based. Conditions: read-out: NCl-H441 IC50. The method, boiled down:
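Proliferation was scored by […] measured after the reagent was added to cultures kept at 37°C in 5% carbon dioxide.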
(In ATP-based viability assays light output follows the ATP content of the culture.)

Where [4] appears, read: ratio of KD for GDP-bound NRAS wild-type protein to KD for KRAS.
The mark [5] stands for this setting: ratio of KD for HRAS wild-type protein to KD for KRAS.
Where [6] appears, read: ratio of KD with respect to GDP-bound NRAS wild-type protein to KD with respect to KRAS.
Where [7] appears, read: Single Cycle Kinetics, 1:1 binding model.
[8] abbreviates: ratio of KD with respect to HRAS wild-type protein to KD with respect to KRAS.
The mark [9] stands for this setting: 50% proliferation inhibitory concentration, four days.

GDP-bound NRAS wild-type protein, sequence (P01111 whole entry): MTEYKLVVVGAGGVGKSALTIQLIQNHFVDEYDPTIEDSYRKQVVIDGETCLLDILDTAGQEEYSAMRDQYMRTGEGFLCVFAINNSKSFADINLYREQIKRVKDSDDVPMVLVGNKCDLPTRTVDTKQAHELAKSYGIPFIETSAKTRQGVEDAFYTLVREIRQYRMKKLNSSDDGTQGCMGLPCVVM
HRAS wild-type protein, sequence (P01112 whole entry): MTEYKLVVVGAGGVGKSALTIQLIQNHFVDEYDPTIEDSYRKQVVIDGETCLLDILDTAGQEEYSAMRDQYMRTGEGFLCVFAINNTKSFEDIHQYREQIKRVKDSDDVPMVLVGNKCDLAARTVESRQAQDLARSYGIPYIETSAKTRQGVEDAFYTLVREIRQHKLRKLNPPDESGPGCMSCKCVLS
GDP-bound KRAS wild-type protein, sequence (P01116 1-188 isoform P01116-2): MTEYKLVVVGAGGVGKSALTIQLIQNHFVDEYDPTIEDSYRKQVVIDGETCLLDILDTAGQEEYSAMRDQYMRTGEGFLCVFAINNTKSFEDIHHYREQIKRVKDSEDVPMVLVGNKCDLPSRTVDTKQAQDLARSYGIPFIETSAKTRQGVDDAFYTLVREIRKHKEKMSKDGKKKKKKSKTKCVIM

By Kd is commonly meant the concentration at which binding is half-saturated. Usually IC50 stands for the concentration at which inhibition is half-maximal. Take `CCC[C@H]1C(=O)N[C@@H](C2CCCC2)C(=O)N(C)CC(=O)N(C)[C@H]2C/C=C\CCN(C2=O)[C@@H](Cc2ccc(C(F)(F)F)cc2)C(=O)N(C)CC(=O)N[C@@H](CCc2ccc(C(F)(F)F)c(OC)c2)C(=O)N2CC3(CC3)C[C@H]2C(=O)N(C)C2(CCC2)C(=O)N(C)[C@@H]([C@@H](C)CC)C(=O)N(C)[C@H](C(=O)N(C)C)CC(=O)N1C` [PP3315]: in assay [1] (setting [4]), the “NRAS /KRAS” value was “A (a compound having 10 or more and less than 20 is denoted as A)”. In assay [2] (Single Cycle Kinetics), this compound came in with a Kd of 0.92 nM. The “HRAS /KRAS” value on HRAS wild-type protein (setting [5]) is “A (a compound having 10 or more and less than 20 is denoted as A)”. The IC50 in assay [3] (NCI-H441 cells, 4 days) is 7.2 nM.

For the compound `CCO[C@@H]1C[C@H]2C(=O)NC3(CCC3)C(=O)N(C)[C@@H](C3CCCC3)C(=O)N(C)[C@H](C(=O)N3CCOCC3)CC(=O)N(C)[C@@H](CC3CC3)C(=O)N[C@@H]([C@@H](C)CC)C(=O)N(C)CC(=O)N(C)[C@H]3CCCCCN(C3=O)[C@@H](Cc3ccc(F)cc3)C(=O)N(C)CC(=O)N[C@@H](CCc3cc(F)c(C(F)(F)F)c(F)c3)C(=O)N2C1` [PP1178], in assay [1] (setting [6]), the “NRAS /KRAS” value was “B (a compound having 3 or more and less than 10 is denoted as B)”. Besides, in assay [2] (setting [7]), the Kd was found to be 0.16 nM. For the same compound, at HRAS wild-type protein (setting [8]), the “HRAS /KRAS” value was “B (a compound having 3 or more and less than 10 is denoted as B)”. For the same compound, in assay [3] (setting [9]), the half-maximal inhibitory concentration (IC50) was 26.3 nM.

Turning to `CCO[C@@H]1C[C@H]2C(=O)NC3(CCC3)C(=O)N(C)[C@@H](C3CCCC3)C(=O)N(C)[C@H](C(=O)N3CCOCC3)CC(=O)N(C)[C@@H](CC)C(=O)N[C@@H]([C@@H](C)CC)C(=O)N3CC[C@H]3C(=O)N(C)[C@H]3C[C@@H](C)[C@@H](C)CN(C3=O)[C@@H](Cc3ccc(C(F)(F)F)cc3)C(=O)N(C)CC(=O)N[C@@H](CCc3ccc(C(F)(F)F)c(Cl)c3)C(=O)N2C1` [PP1357], in assay [1] (setting [6]), the “NRAS /KRAS” value was “A (a compound having 10 or more and less than 20 is denoted as A)”. In assay [2] (setting [7]), this compound had a Kd of 0.13 nM. For the same compound, on HRAS wild-type protein (setting [8]), the “HRAS /KRAS” value is “B (a compound having 3 or more and less than 10 is denoted as B)”. In assay [3] (setting [9]), the IC50 was 5.4 nM.

`CCCCCC[C@H]1C(=O)N[C@@H]([C@@H](C)CC)C(=O)N(C)CC(=O)N(C)[C@H]2C/C=C\CCN(C2=O)[C@@H](Cc2ccc(C(F)(F)F)cc2)C(=O)N(C)CC(=O)N[C@@H](CCc2cc(F)c(C(F)(F)F)c(F)c2)C(=O)N2C[C@H](OCC)C[C@H]2C(=O)NC2(CCC2)C(=O)N(C)[C@@H](C2CCCC2)C(=O)N(C)[C@H](C(=O)N(C)C)CC(=O)N1C` [PP1242]: the “NRAS /KRAS” value in assay [1] (setting [6]) was “A (a compound having 10 or more and less than 20 is denoted as A)”. This compound gave a Kd in assay [2] (setting [7]) of 0.076 nM. In addition, the “HRAS /KRAS” value at HRAS wild-type protein (setting [8]) was “A (a compound having 10 or more and less than 20 is denoted as A)”. The IC50 in assay [3] (setting [9]) came out at 12.8 nM.

On to `CC[C@H](C)[C@@H]1NC(=O)[C@H](COC)N(C)C(=O)C[C@@H](C(=O)N(C)C)N(C)C(=O)[C@H](C2CCCC2)N(C)C(=O)C2(CC(C)(C)C2)NC(=O)[C@@H]2C[C@H](C)CN2C(=O)[C@H](CCc2ccc(C(F)(F)F)c(OC)c2)NC(=O)CN(C)C(=O)[C@H](Cc2ccc(C)cc2)N2CC/C=C\C[C@@H](C2=O)N(C)C(=O)[C@@H]2C[C@H](OC)CN2C1=O` [PP2390], for which the “NRAS /KRAS” value in assay [1] (setting [4]) is “A (a compound having 10 or more and less than 20 is denoted as A)”. In assay [2] (1:1 binding model), this compound registered a Kd of 0.28 nM. For the same compound, the “HRAS /KRAS” value at HRAS wild-type protein (setting [5]) was “B (a compound having 3 or more and less than 10 is denoted as B)”. Further, the IC50 in assay [3] (NCI-H441 cells, 4 days) amounted to 96.7 nM.

`C#CC[C@H]1C(=O)N[C@@H]([C@@H](C)CC)C(=O)N(C2CC2)CC(=O)N(C)[C@H]2C/C=C\CCN(C2=O)[C@@H](Cc2ccc(C(F)(F)F)cc2)C(=O)N(C)CC(=O)N[C@@H](CCc2ccc(C(F)(F)F)c(OC)c2)C(=O)N2C[C@H](OCC)C[C@H]2C(=O)OC2(CCC2)C(=O)N(C)[C@@H](C2CCCC2)C(=O)N(C)[C@H](C(=O)N(C)C)CC(=O)N1C` [PP3372]: the “NRAS /KRAS” value in assay [1] (setting [4]) is “A (a compound having 10 or more and less than 20 is denoted as A)”. In assay [2] (Single Cycle Kinetics), the Kd was determined as 1.5 nM. At HRAS wild-type protein (setting [5]), the “HRAS /KRAS” value was “B (a compound having 3 or more and less than 10 is denoted as B)”. Moreover, the IC50 in assay [3] (NCI-H441 cells, 4 days) came to 16.8 nM.
